Test system: 966289-007-R4-J1-PDC complex spheroid viability
Assay: Anticancer human tumor 966289-007-R4-J1-PDC patient-derived pancreatic adenocarcinoma cell line growth inhibition [RAS]
Conditions: for IC50: curve of first compound; for viability, T/C: stronger effect = lower value
Method in brief: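 Agents were tested in combination matrices in half-log decrements from a top concentration at or near clinical Cmax (10 microM if undetermined). Targets were multi-cell spheroids of tumour lines plus HUVEC and MSC stromal cells.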
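Also: spheroids exposed to agents for one week before readout.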
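For viability, T/C in this document: percent viability relative to DMSO vehicle control wells as 100%.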

With CC1(C)CCC(Nc2ncc(C(F)(F)F)c(-c3c[nH]c4c(P(C)(C)=O)c(C#N)ccc34)n2)CN1 (centres undefined) + C#Cc1c(F)ccc2cc(O)cc(-c3ncc4c(N5CC6CCC(C5)N6)nc(OCC56CCCN5CC(F)C6)nc4c3F)c12 the IC50 (second compound 0.0316 µM) was 17 nM, the IC50 (second compound 0.1 µM) was 15.6 nM and the IC50 (second compound 0.316 µM) was 18.3 nM. For the same compound, the IC50 (second compound 1 µM) was 19.6 nM, the IC50 (second compound 3.16 µM) was 19.1 nM and the IC50 (second compound 10 µM) was 18.6 nM. For the same compound, the viability, T/C (second compound 0.0316 µM, first compound 0.000949 µM) was 113%, the viability, T/C (second compound 0.0316 µM, first compound 0.003 µM) was 107% and the viability, T/C (second compound 0.0316 µM, first compound 0.00949 µM) was 80.6%. The viability, T/C (second compound 0.0316 µM, first compound 0.03 µM) was 19.9%, the viability, T/C (second compound 0.0316 µM, first compound 0.0949 µM) was 15.4% and the viability, T/C (second compound 0.0316 µM, first compound 0.3 µM) was 11.9%. The viability, T/C (second compound 0.1 µM, first compound 0.000949 µM) was 107%, the viability, T/C (second compound 0.1 µM, first compound 0.003 µM) was 131% and the viability, T/C (second compound 0.1 µM, first compound 0.00949 µM) was 76.4%. For the same compound, the viability, T/C (second compound 0.1 µM, first compound 0.03 µM) was 20.8%, the viability, T/C (second compound 0.1 µM, first compound 0.0949 µM) was 13.4% and the viability, T/C (second compound 0.1 µM, first compound 0.3 µM) was 11.3%. For the same compound, the viability, T/C (second compound 0.316 µM, first compound 0.000949 µM) was 102%, the viability, T/C (second compound 0.316 µM, first compound 0.003 µM) was 134% and the viability, T/C (second compound 0.316 µM, first compound 0.00949 µM) was 90.3%. The viability, T/C (second compound 0.316 µM, first compound 0.03 µM) was 20.8%, the viability, T/C (second compound 0.316 µM, first compound 0.0949 µM) was 13.9% and the viability, T/C (second compound 0.316 µM, first compound 0.3 µM) was 12.9%. For the same compound, the viability, T/C (second compound 1 µM, first compound 0.000949 µM) was 106%, the viability, T/C (second compound 1 µM, first compound 0.003 µM) was 131% and the viability, T/C (second compound 1 µM, first compound 0.00949 µM) was 89.3%. The viability, T/C (second compound 1 µM, first compound 0.03 µM) was 27.3%, the viability, T/C (second compound 1 µM, first compound 0.0949 µM) was 13.8% and the viability, T/C (second compound 1 µM, first compound 0.3 µM) was 10.3%. For the same compound, the viability, T/C (second compound 3.16 µM, first compound 0.000949 µM) was 115%, the viability, T/C (second compound 3.16 µM, first compound 0.003 µM) was 135% and the viability, T/C (second compound 3.16 µM, first compound 0.00949 µM) was 91.7%. The viability, T/C (second compound 3.16 µM, first compound 0.03 µM) was 24.1%, the viability, T/C (second compound 3.16 µM, first compound 0.0949 µM) was 12.2% and the viability, T/C (second compound 3.16 µM, first compound 0.3 µM) was 12.1%. It also gave a viability, T/C (second compound 10 µM, first compound 0.000949 µM) of 101%, a viability, T/C (second compound 10 µM, first compound 0.003 µM) of 113% and a viability, T/C (second compound 10 µM, first compound 0.00949 µM) of 89.8%. The viability, T/C (second compound 10 µM, first compound 0.03 µM) was 21.9%, the viability, T/C (second compound 10 µM, first compound 0.0949 µM) was 15.1% and the viability, T/C (second compound 10 µM, first compound 0.3 µM) was 9.97%.
In the case of C=CC(=O)Nc1cc(Nc2nccc(-c3cn(C)c4ccccc34)n2)c(OC)cc1N(C)CCN(C)C + C=CC(=O)N1CCN(c2nc(OCC3CCCN3C)nc3c(F)c(-c4nc(N)cc(C)c4C(F)(F)F)c(Cl)cc23)C(C)C1, the IC50 (second compound 0.00316 µM) is reported as over 1000 nM, the IC50 (second compound 0.01 µM) is reported as over 1000 nM and the IC50 (second compound 0.0316 µM) is reported as over 1000 nM. It also gave an IC50 (second compound 0.1 µM) of over 1000 nM, an IC50 (second compound 0.316 µM) of over 1000 nM and an IC50 (second compound 1 µM) of over 1000 nM. It also gave a viability, T/C (second compound 0.00316 µM, first compound 0.00316 µM) of 102%, a viability, T/C (second compound 0.00316 µM, first compound 0.01 µM) of 105% and a viability, T/C (second compound 0.00316 µM, first compound 0.0316 µM) of 101%. The viability, T/C (second compound 0.00316 µM, first compound 0.1 µM) was 104%, the viability, T/C (second compound 0.00316 µM, first compound 0.316 µM) was 104% and the viability, T/C (second compound 0.00316 µM, first compound 1 µM) was 71.7%. For the same compound, the viability, T/C (second compound 0.01 µM, first compound 0.00316 µM) was 95.6%, the viability, T/C (second compound 0.01 µM, first compound 0.01 µM) was 100% and the viability, T/C (second compound 0.01 µM, first compound 0.0316 µM) was 85.5%. For the same compound, the viability, T/C (second compound 0.01 µM, first compound 0.1 µM) was 97.7%, the viability, T/C (second compound 0.01 µM, first compound 0.316 µM) was 97.9% and the viability, T/C (second compound 0.01 µM, first compound 1 µM) was 71.8%. It also gave a viability, T/C (second compound 0.0316 µM, first compound 0.00316 µM) of 105%, a viability, T/C (second compound 0.0316 µM, first compound 0.01 µM) of 102% and a viability, T/C (second compound 0.0316 µM, first compound 0.0316 µM) of 97.9%. The viability, T/C (second compound 0.0316 µM, first compound 0.1 µM) was 98.7%, the viability, T/C (second compound 0.0316 µM, first compound 0.316 µM) was 97.3% and the viability, T/C (second compound 0.0316 µM, first compound 1 µM) was 78.8%. The viability, T/C (second compound 0.1 µM, first compound 0.00316 µM) was 117%, the viability, T/C (second compound 0.1 µM, first compound 0.01 µM) was 103% and the viability, T/C (second compound 0.1 µM, first compound 0.0316 µM) was 101%. For the same compound, the viability, T/C (second compound 0.1 µM, first compound 0.1 µM) was 97.4%, the viability, T/C (second compound 0.1 µM, first compound 0.316 µM) was 85.4% and the viability, T/C (second compound 0.1 µM, first compound 1 µM) was 83.9%. The viability, T/C (second compound 0.316 µM, first compound 0.00316 µM) was 104%, the viability, T/C (second compound 0.316 µM, first compound 0.01 µM) was 112% and the viability, T/C (second compound 0.316 µM, first compound 0.0316 µM) was 118%. It also gave a viability, T/C (second compound 0.316 µM, first compound 0.1 µM) of 98.5%, a viability, T/C (second compound 0.316 µM, first compound 0.316 µM) of 84.6% and a viability, T/C (second compound 0.316 µM, first compound 1 µM) of 78.9%. The viability, T/C (second compound 1 µM, first compound 0.00316 µM) was 102%, the viability, T/C (second compound 1 µM, first compound 0.01 µM) was 95.5% and the viability, T/C (second compound 1 µM, first compound 0.0316 µM) was 95.3%. It also gave a viability, T/C (second compound 1 µM, first compound 0.1 µM) of 100%, a viability, T/C (second compound 1 µM, first compound 0.316 µM) of 96% and a viability, T/C (second compound 1 µM, first compound 1 µM) of 67.6%.

Reference: PubChem BioAssay AID2060897 (Molecular Pharmacology Branch, DTP, NCI, 2025)
